The values below come from US20160067208A1, “ADHESION PREVENTING AGENT” (FARNEX INCORPORATED, priority 2013, published 2016).

The structures appear in SMILES notation.

Format in all cases: physicochemical
A short description of data set [1]: Shear viscosity of liquid crystal gels. The conditions noted are these: gel prepared by addition of water, 25° C. As for the experimental part:
The viscosity was measured for the gels prepared by addition of water to the compounds synthesized in Examples 1, 4, and 5. Specifically, for the gel samples obtained by mixing homogeneously according to the same procedure as in Example 9, the shear viscosity was measured at a temperature of 25° C., using a viscosity and viscoelasticity measuring apparatus (Gemini II, Malvern Instruments Ltd.; cone plate φ25, cone angle 1°).
The viscosity was measured for the gels prepared by addition of water to the compounds synthesized in Examples 45 and 50, and C17 glycerin ester synthesized in Example 13. Specifically, for the gel samples obtained by mixing homogeneously according to the same procedure as in Example 9, the shear viscosity was measured at a temperature of 25° C., using a viscosity and viscoelasticity measuring apparatus (Gemini II, Malvern Instruments Ltd.; cone plate φ25, cone angle 1°).

Data set [2] is described as follows: SAXS analysis of compound/water system (liquid crystal formation). As to conditions: compound/water system gel, 50% by mass in water-excess condition, room temperature (25° C.). The source says:
Whether or not a liquid crystal structure has a cubic lattice may be determined by a small-angle X-ray scattering (SAXS) method, for the purpose of confirming liquid crystal formation. First, an amphipathic compound/water system sample with a predetermined concentration can be filled into an X-ray capillary tube made of quartz, for example, and the capillary tube is sealed with an oxy-fuel burner, and subjected to SAXS assay.
Mono-O-(5,9,13-trimethyltetradeca-4,8,12-trienoyl)glycerol synthesized in Example 1 and pure water were introduced into a mixing device at the concentration of 50% by mass of mono-O-(5,9,13-trimethyltetradeca-4,8,12-trienoyl)glycerol (in water-excess condition), and they were mixed at room temperature (25° C.) and left for 24 hours to obtain a homogeneous mixture. Then the separated water was removed. Thus, a sample of mono-O-(5,9,13-trimethyltetradeca-4,8,12-trienoyl)glycerol/water system was obtained as a white turbid to colorless transparent gel composition in appearance (it was referred to below as the gel sample).
Subsequently, the gel sample was analyzed by small-angle x-ray scattering (SAXS). The NANO-Viewer nano-scale X-ray structure analysis equipment (Rigaku) was used for SAXS analysis, which was performed by X-ray irradiation at room temperature (25° C.), 40 kV, 50 mA, wavelength λ=0.1542 nm (Cu-Kα).
Each of the compounds synthesized in Example 32, 33, 43, 45, 49, and 50 and water were homogeneously mixed in accordance with the same procedure as in Example 9 to obtain a sample of each compound/water system being a gel in appearance. SAXS analysis of these gel samples was performed in the same manner as in Example 9. […]

Data set [3] can be described thus: Viscosity of the compound itself (Gemini II, Malvern). As to conditions: 25° C., at shear velocity of 92 1/s. The procedure: In addition, the amphipathic compound to be used for the adhesion preventing agent of the present invention has low viscosity in itself. Specifically, the amphipathic compound to be used for the adhesion preventing agent of the present invention has a viscosity of preferably 15.0 Pa·s or less, more preferably 11.0 Pa·s or less, and further preferably 6.0 Pa·s or less as measured at 25° C. in itself. The viscosity can be measured using, for example, a viscosity and viscoelasticity measuring apparatus (Gemini II, Malvern Instruments Ltd.) at 25° C.
The viscosity of each of the compounds described in the Examples 1-7 was measured using a viscosity/viscoelasticity measuring instrument (Gemini II, Malvern) at the temperature of 25° C.

Data set [4] is described as follows: Preparability and temperature stability of comparative formulations. The conditions noted are these: 0.65 cs dimethicone (GMO: 1.00 g in 2.33 g). As for the experimental part:
2.33 g of 0.65 cs dimethicone (Dow Corning Q7-9180 Silocon Fluid 0.65 CST) was added to 1.00 g of GMO (Rikemal XO-100L, Riken Vitamin Co., Ltd.), followed by stirring to prepare a solution.
Additionally, an o/w dispersion of GMO having the same composition as test sample 18 as described above was prepared, and stored at a refrigerated temperature (7° C.). […] Thus, it is shown that the o/w dispersion of GMO has low temperature stability.
In accordance with Example 14 described in JP Patent Publication No. 2008-528463A, GDO (4.30 g), SPC (Lecinol S-10E, 2.90 g), P80 (1.80 g), and ethanol (1.00 g) were mixed to prepare a liquid crystal precursor composition (GDO/SPC/P80/EtOH=43:29:18:10).
6 mL of distilled water was added to 1.388 g of the liquid crystal precursor composition, followed by stirring for 1 hour to prepare test sample 6 (GDO/SPC/P80/EtOH/water=[…]:81.2).
Thus, it was impossible to prepare a lipid/dimethicone preparation, unlike test samples 13, 14, 21 and 23. […] It was considered that this was due to high viscosity of the sample.

`CC(C)=CCC/C(C)=C/CCC(C)=CCCC(=O)OCC(O)CO` (centres unmarked) [Example 1, mono-O-(5,9,13-trimethyltetradeca-4,8,12-trienoyl)glycerol]: the results for the Viscosity in data set [1] (shear velocity 12 1/s), in data set [1] (shear velocity 100.8 1/s) and in data set [3] were 461 Pas · sec, 37 Pas · sec and 0.26 Pa·s, respectively. For the same molecule, the “liquid crystal structure (SAXS peak value ratio)” value in data set [2] is recorded as “cubic liquid crystal that belongs to the crystallographic space group Pn3m”.
In the same order, the values of `CC(C)=CCC/C(C)=C/CC/C(C)=C/CCC(C)=CCCC(=O)OCC(O)C(O)CO` (centres unmarked) [Example 5, mono-O-(5,9,13,17-tetramethyloctadeca-4,8,12,16-tetraenoyl)erythritol] are 333 Pas · sec, 17 Pas · sec, 5.8 Pa·s and “cubic liquid crystal that belongs to the crystallographic space group Pn3m”.
Regarding `CC(C)=CCC/C(C)=C/CC/C(C)=C/CCC(C)=CCOCC(O)C(O)CO` (centres unmarked) [Example 45, mono-O-(3,7,11,15-tetramethylhexadeca-2,6,10,14-tetraenyl)erythritol], the Viscosity in data set [1] (shear velocity 10 1/s) is 314 Pas · sec; in data set [1] (shear velocity 105 1/s), 4.3 Pas · sec; in data set [3], 1.9 Pa·s. Besides, the “liquid crystal structure (SAXS peak value ratio)” value in data set [2] is “cubic liquid crystals that belong to the crystallographic space group Pn3m”.
In the same order, the values of `CC(C)=CCC/C(C)=C/CC/C(C)=C/CCC(C)=CCCCOCC(CO)(CO)CO` [Example 50, mono-O-(5,9,13,17-tetramethyloctadeca-4,8,12,16-tetraenyl)pentaerythritol] are 81 Pas · sec, 14 Pas · sec, 0.78 Pa·s and “reverse hexagonal liquid crystals”.
As to `CCCCCCCC/C=C\CCCCCCCC(=O)OCC(O)CO` (centres unmarked) [GMO, Glyceryl Monooleate], the “state / solubility in dimethicone” value in data set [4] is on record as “crystals were precipitated”.
